Our source for the EGF and Toxicity grade values is patent US11105794B2, “In vitro nephrotoxicity screening assay” (Hoffmann-La Roche Inc., priority 2016, dated 2021).

One series deals with PTEC-TERT1 cells. The experiment in a line: EGF assay, supernatant of PTEC-TERT1 cells. Conditions: for Toxicity grade: from EGF, assay window saline vs toxic reference compound 4-1.
Series [1] deals with Primary human hepatocytes. The series can be described thus: EGF assay, culture media of primary human hepatocytes.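 Also: values as percent of saline vehicle control.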 The series is classed as cell-based. Conditions: 10 ng/ml EGF in medium. On the procedure:
Cryopreserved human hepatocytes were suspended in William's Medium E (WME) without phenol red (Sigma W-1878) supplemented with 10% fetal calf serum, penicillin (100 U/ml), streptomycin (0.1 mg/ml) at a density of approx. 1×10^6 cells/ml and seeded into collagen-coated 96-well plates (Becton Dickinson AG, Allschwil, Switzerland) at a density of 0.4×10^5 cells/well. Cells were pre-cultured for 3 to 4 h allowing for attachment to cell culture plates before start of treatment with oligonucleotides.
Before oligonucleotide treatment the seeding medium was replaced by 90 μl of serum free WME.
The total volume of each well was 100 μl. PBS served as vehicle control.
Human primary hepatocytes were cultivated as described in the “Materials and methods” section with addition of 10 ng/ml of EGF to the medium. At confluence the cells were treated with oligonucleotide as described in the “Materials and methods” section, in concentrations of 10 or 100 μM.
The medium was obtained at day 3, and the EGF level was measured according to the assay described in the “Materials and methods” section.

Where [2] appears, read: PTEC-TERT1, 6 days, 10 μM oligonucleotide (Table 7).
[3] abbreviates: PTEC-TERT1, 6 days, 30 μM oligonucleotide (Table 7).
[4] abbreviates: PTEC-TERT1, Day 6, 10 μM (Table 4).
Setting [5] is: PTEC-TERT1, Day 6, 30 μM (Table 4).
Setting [6] is: PTEC-TERT1, Day 6, 100 μM (Table 4).

Procedure for PTEC-TERT1 cells: Prior to treatment with oligonucleotides the PTEC-TERT1 were seeded into collagen I-coated 96-well plates (Corning, 356407) at a density of 40 000 and 20 000 cells/well respectively in PTEC medium and grown until confluence.
Oligonucleotides were dissolved in PBS and added to the cell culture at the given concentration, such as 10, 30 or 100 μM. The total volume of each well was 100 μl. PBS served as vehicle control.
When extra cellular markers, like EGF and KIM-1, were analyzed following the oligonucleotide treatment the medium was collected and stored at −20° C. until further analysis. […] The collected medium was stored at −20° C.
For analysis of human EGF, cell supernatants were thawed on ice, diluted 1:2 and 1:10 in sample dilution buffer (BioRad catalog # M60-009RDPD) and analyzed by Luminex®-based ELISA using human EGF beads (Bio-Plex Pro™ Human Cancer Biomarker Panel 2 EGF Set#171BC603M), or followed by analysis using the Bio-Plex® 200 Systems (BioRad) according to the manufacturer's instructions. Data are reported as mean concentrations and standard deviations of triplicate wells.

For the substance “ACTgcrtttcrcacrtCTG (antisense ACTGCTTTCCACTCTG; LNA gapmer, stereodefined phosphorothioates, chemistry not fully specified) [Compound 8-3]”, the EGF stood at 869 % saline in the series with PTEC-TERT1 cells (setting [2]) and 3416 % saline with PTEC-TERT1 cells (setting [3]). Besides, the Toxicity grade in the series on PTEC-TERT1 cells (PTEC-TERT1, 6 days, 10 μM) is 32; with PTEC-TERT1 cells (PTEC-TERT1, 6 days, 30 μM) it was 46.

Regarding “ACTgcstttcscacstCTG (antisense ACTGCTTTCCACTCTG; LNA gapmer, stereodefined phosphorothioates, chemistry not fully specified) [Compound 8-2]”, the EGF with PTEC-TERT1 cells (setting [2]) stood at 5723 % saline; with PTEC-TERT1 cells (setting [3]), 25199 % saline. In addition, the Toxicity grade with PTEC-TERT1 cells (PTEC-TERT1, 6 days, 10 μM) is on record as 219; with PTEC-TERT1 cells (PTEC-TERT1, 6 days, 30 μM), 347.

Take “ATTgcattgtttcCGT (ATTGCATTGTTTCCGT; chemistry not given here) [Compound 18-1]”: the EGF with PTEC-TERT1 cells (setting [4]) is given as 223 % saline; in the series with PTEC-TERT1 cells (setting [5]), 203 % saline; in the series with PTEC-TERT1 cells (setting [6]), 290 % saline.

For “CAAaggaaacacaCAT (CAAAGGAAACACACAT; chemistry not given here) [Compound 6-1]”, the EGF in the series with PTEC-TERT1 cells (setting [4]) amounted to 78 % saline; in the series on PTEC-TERT1 cells (setting [5]), 90 % saline; in the series with PTEC-TERT1 cells (setting [6]), 118 % saline.

On to “CAAatgctgaaacTAT (CAAATGCTGAAACTAT; chemistry not given here) [Compound 7-1]”, for which the results for the EGF in the series on PTEC-TERT1 cells (setting [4]), in the series on PTEC-TERT1 cells (setting [5]) and in the series on PTEC-TERT1 cells (setting [6]) were 37 % saline, 40 % saline and 67 % saline, respectively.

Take “CACattccttgctCTG (CACATTCCTTGCTCTG; chemistry not given here) [Compound 10-1]”: the EGF amounted to 145 % saline in series [1] (day 3, 10 μM); 574 % saline in series [1] (day 3, 100 μM); 305 % saline with PTEC-TERT1 cells (setting [2]); 1283 % saline with PTEC-TERT1 cells (setting [3]); 73 % saline with PTEC-TERT1 cells (setting [4]); 330 % saline in the series on PTEC-TERT1 cells (setting [5]). For the same substance, the EGF with PTEC-TERT1 cells (setting [6]) is 783 % saline. Moreover, the Toxicity grade in the series on PTEC-TERT1 cells (PTEC-TERT1, 6 days, 10 μM) is listed as 11; in the series with PTEC-TERT1 cells (PTEC-TERT1, 6 days, 30 μM), 17.

Regarding “CACattrccttrgctrCTrG (antisense CACATTCCTTGCTCTG; LNA gapmer, stereodefined phosphorothioates, chemistry not fully specified) [Compound 10-3]”, the EGF with PTEC-TERT1 cells (setting [2]) is given as 248 % saline; with PTEC-TERT1 cells (setting [3]) it was 1740 % saline. The Toxicity grade was 9 in the series with PTEC-TERT1 cells (PTEC-TERT1, 6 days, 10 μM) and 23 in the series on PTEC-TERT1 cells (PTEC-TERT1, 6 days, 30 μM).

As to “CACattrcrcttrgrctCTG (antisense CACATTCCTTGCTCTG; LNA gapmer, stereodefined phosphorothioates, chemistry not fully specified) [Compound 10-5]”, the EGF is recorded as 369 % saline in the series on PTEC-TERT1 cells (setting [2]) and 1069 % saline in the series on PTEC-TERT1 cells (setting [3]). For the same substance, the Toxicity grade in the series with PTEC-TERT1 cells (PTEC-TERT1, 6 days, 10 μM) is listed as 13; with PTEC-TERT1 cells (PTEC-TERT1, 6 days, 30 μM), 14.

For the substance “CACattsccttsgctsCTsG (antisense CACATTCCTTGCTCTG; LNA gapmer, stereodefined phosphorothioates, chemistry not fully specified) [Compound 10-2]”, the EGF in the series with PTEC-TERT1 cells (setting [2]) is 93 % saline; in the series with PTEC-TERT1 cells (setting [3]), 156 % saline. Moreover, the Toxicity grade in the series on PTEC-TERT1 cells (PTEC-TERT1, 6 days, 10 μM) stood at 3; with PTEC-TERT1 cells (PTEC-TERT1, 6 days, 30 μM) it was 1.

With “CACattscscttsgsctCTG (antisense CACATTCCTTGCTCTG; LNA gapmer, stereodefined phosphorothioates, chemistry not fully specified) [Compound 10-4]”, the figures for the EGF in the series with PTEC-TERT1 cells (setting [2]) and in the series with PTEC-TERT1 cells (setting [3]) were 60 % saline and 157 % saline, respectively. Further, the Toxicity grade in the series on PTEC-TERT1 cells (PTEC-TERT1, 6 days, 10 μM) came out at 1; in the series on PTEC-TERT1 cells (PTEC-TERT1, 6 days, 30 μM) it was 1.

On to “CATtgcattgttTCCG (CATTGCATTGTTTCCG; chemistry not given here) [Compound 19-2]”, for which the values for the EGF in the series on PTEC-TERT1 cells (setting [4]), in the series on PTEC-TERT1 cells (setting [5]) and in the series with PTEC-TERT1 cells (setting [6]) were 370 % saline, 606 % saline and 770 % saline, respectively.

On to “CATtgcattgtttCCG (CATTGCATTGTTTCCG; chemistry not given here) [Compound 19-1]”, for which the figures for the EGF in the series on PTEC-TERT1 cells (setting [4]), in the series on PTEC-TERT1 cells (setting [5]) and in the series with PTEC-TERT1 cells (setting [6]) were 317 % saline, 310 % saline and 413 % saline, respectively.

In the case of “CGTttgtgctcgATA (CGTTTGTGCTCGATA; chemistry not given here) [Compound 17-1]”, the EGF in the series with PTEC-TERT1 cells (setting [4]) is 342 % saline; in the series with PTEC-TERT1 cells (setting [5]), 550 % saline; with PTEC-TERT1 cells (setting [6]), 693 % saline.

As for “CGTttgtgctcgaTAA (CGTTTGTGCTCGATAA; chemistry not given here) [Compound 16-1]”, the figures for the EGF in the series with PTEC-TERT1 cells (setting [4]), with PTEC-TERT1 cells (setting [5]) and with PTEC-TERT1 cells (setting [6]) were 394 % saline, 509 % saline and 707 % saline, respectively.

On to “CTAtgtgttccTGT (CTATGTGTTCCTGT; chemistry not given here) [Compound 15-1]”, for which the EGF in the series on PTEC-TERT1 cells (setting [4]) stood at 38 % saline; with PTEC-TERT1 cells (setting [5]), 76 % saline; in the series on PTEC-TERT1 cells (setting [6]) it was 234 % saline.

Consider “GCCtcccagttccTTT (GCCTCCCAGTTCCTTT; chemistry not given here) [Compound 9-1]”, for which the EGF was 220 % saline with PTEC-TERT1 cells (setting [4]), 284 % saline in the series with PTEC-TERT1 cells (setting [5]) and 1593 % saline with PTEC-TERT1 cells (setting [6]).

Turning to “GTCagaaacaaccACC (GTCAGAAACAACCACC; chemistry not given here) [Compound 14-1]”, the EGF amounted to 139 % saline in series [1] (day 3, 10 μM) and 220 % saline in series [1] (day 3, 100 μM).

Turning to “TAAggcaatcaagGTA (TAAGGCAATCAAGGTA; chemistry not given here) [Compound 5-1]”, the EGF in the series with PTEC-TERT1 cells (PTEC-TERT1, Day 3, 11 μM (Table 3)) is listed as 174 % saline; in the series with PTEC-TERT1 cells (PTEC-TERT1, Day 3, 33 μM (Table 3)), 222 % saline; in the series on PTEC-TERT1 cells (PTEC-TERT1, Day 3, 100 μM (Table 3)), 182 % saline; in the series on PTEC-TERT1 cells (PTEC-TERT1, Day 7, 11 μM (Table 3)), 158 % saline; in the series with PTEC-TERT1 cells (PTEC-TERT1, Day 7, 33 μM (Table 3)), 249 % saline; in the series on PTEC-TERT1 cells (PTEC-TERT1, Day 7, 100 μM (Table 3)), 754 % saline. The EGF with PTEC-TERT1 cells (PTEC-TERT1, Day 10, 11 μM (Table 3)) was 54 % saline; in the series on PTEC-TERT1 cells (PTEC-TERT1, Day 10, 33 μM (Table 3)), 210 % saline; with PTEC-TERT1 cells (PTEC-TERT1, Day 10, 100 μM (Table 3)), 720 % saline.

With “TGCtcaacatcAAG (TGCTCAACATCAAG; chemistry not given here) [Compound 11-1]”, the EGF in series [1] (day 3, 10 μM) is 184 % saline; in series [1] (day 3, 100 μM) it was 458 % saline; in the series on PTEC-TERT1 cells (setting [4]), 38 % saline; in the series with PTEC-TERT1 cells (setting [5]), 127 % saline; in the series on PTEC-TERT1 cells (setting [6]) it was 371 % saline.

Consider “TTAcacttgacCCA (TTACACTTGACCCA; chemistry not given here) [Compound 12-1]”, for which the EGF in the series on PTEC-TERT1 cells (setting [4]) is recorded as 19 % saline; with PTEC-TERT1 cells (setting [5]) it was 27 % saline; in the series with PTEC-TERT1 cells (setting [6]), 71 % saline.

For “TTTacacttgaCCC (TTTACACTTGACCC; chemistry not given here) [Compound 13-1]”, the EGF came out at 27 % saline in the series on PTEC-TERT1 cells (setting [4]), 29 % saline with PTEC-TERT1 cells (setting [5]) and 39 % saline with PTEC-TERT1 cells (setting [6]).
